Tests used:
mouse DGAT1 = biological target: T1, mouse DGAT1 (Mus musculus, UniProt Q9Z2A7); assay: DGAT1 inhibitory effect test (microsome fraction, [14C]-oleoyl-CoA, triglyceride radioactivity by TLC); type: biochemical; conditions: 0.5 h; concentration of the test compound 0.1 μg/ml; mouse DGAT1 microsomes, 23° C., 30 minutes; read-out: Inhibitory ratio
T1 construct: made in house; host or cells: insect cells (High Five, Sf9, Sf21, etc.), baculovirus expression system (Invitrogen)
T1 sequence (Q9Z2A7 1-498): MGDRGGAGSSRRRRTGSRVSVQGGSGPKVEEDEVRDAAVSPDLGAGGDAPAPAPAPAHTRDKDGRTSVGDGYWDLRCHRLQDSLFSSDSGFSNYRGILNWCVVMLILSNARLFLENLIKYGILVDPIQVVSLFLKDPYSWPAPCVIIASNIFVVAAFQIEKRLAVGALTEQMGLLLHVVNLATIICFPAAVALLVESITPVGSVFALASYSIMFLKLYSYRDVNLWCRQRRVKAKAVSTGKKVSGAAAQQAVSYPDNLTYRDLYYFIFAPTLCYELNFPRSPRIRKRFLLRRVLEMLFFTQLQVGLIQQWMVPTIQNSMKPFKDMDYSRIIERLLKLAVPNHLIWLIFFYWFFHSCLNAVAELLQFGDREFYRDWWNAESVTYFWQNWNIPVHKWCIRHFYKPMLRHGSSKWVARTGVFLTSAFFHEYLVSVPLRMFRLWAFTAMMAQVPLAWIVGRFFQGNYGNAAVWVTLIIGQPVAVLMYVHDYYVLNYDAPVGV
Outline: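 Baculovirus-expressed mouse DGAT1 insect-cell microsomes (10 μg) were incubated 30 min at 23 °C, pH 8.0, with 0.5 mM 1,2-dioleoyl-sn-glycerol, 30 μM [14C]-oleoyl-CoA and 0.5% Triton X-100. [14C]-triglyceride was quantified after heptane extraction and TLC. Percent inhibition was taken against vehicle control, with 0-min background subtracted.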

Structure (SMILES)	inhibition at 0.1 µg/mL (mouse DGAT1) [%]	melting point [°C]
Cc1cccc(Cl)c1NC(=O)N1CCN(c2ccc(NC(=O)Nc3cc(C(F)(F)F)ccc3Cl)cc2)CC1 [Example 164, 4-{4-[3-(2-chloro-5-trifluoromethyl-phenyl)-ureido]-phenyl}-piperazine-1-carboxylic acid (2-chloro-6-methyl-phenyl)-amide]	≥ 50	249 to 251
CCOc1cccc(NC(=O)Nc2ccc(N3CCN(C(=O)Nc4cc(OCCO)ccc4Cl)CC3)cc2)c1 [Example 233, 4-{4-[3-(3-ethoxy-phenyl)-ureido]-phenyl}-piperazine-1-carboxylic acid [2-chloro-5-(2-hydroxy-ethoxy)-phenyl]-amide]	≥ 50	196 to 197
COc1ccc(F)cc1NC(=O)Nc1ccc(N2CCN(C(=O)Nc3c(Cl)cccc3Cl)CC2)cc1 [Example 101, 4-{4-[3-(5-fluoro-2-methoxy-phenyl)-ureido]-phenyl}-piperazine-1-carboxylic acid (2,6-dichloro-phenyl)-amide]	≥ 50	235 to 237
O=C(Nc1ccc(N2CCN(C(=O)Nc3ccc(OCCO)cc3C(F)(F)F)CC2)cc1)Nc1ccc2c(c1)CCO2 [Example 243, 4-{4-[3-(2,3-dihydro-benzofuran-5-yl)-ureido]-phenyl}-piperazine-1-carboxylic acid [4-(2-hydroxy-ethoxy)-2-trifluoromethyl-phenyl]-amide]	≥ 50	212 to 214
COc1ccc(C)cc1NC(=O)Nc1ccc(N2CCN(C(=O)Nc3ccc(C(=O)O)cc3C)CC2)cc1 [Example 180, 4-[(4-{4-[3-(2-methoxy-5-methyl-phenyl)-ureido]-phenyl}-piperazine-1-carbonyl)-amino]-3-methyl-benzoic acid]	≥ 50	178 to 180
COc1ccc(C)cc1NC(=O)Nc1ccc(N2CCN(C(=O)Nc3ccc(Cl)cc3C(F)(F)F)CC2)cc1 [Example 86, 4-{4-[3-(2-methoxy-5-methyl-phenyl)-ureido]-phenyl}-piperazine-1-carboxylic acid (4-chloro-2-trifluoromethyl-phenyl)-amide]	≥ 50	186 to 187
COc1ccc(Cl)cc1NC(=O)Nc1ccc(N2CCN(C(=O)Nc3c(Cl)cccc3Cl)CC2)cc1 [Example 132, 4-{4-[3-(5-chloro-2-methoxy-phenyl)-ureido]-phenyl}-piperazine-1-carboxylic acid (2,6-dichloro-phenyl)-amide]	≥ 50	189 to 190
COc1ccc(NC(=O)N2CCN(c3ccc(NC(=O)Nc4cc(C)ccc4OC)cc3)CC2)c(C(F)(F)F)c1 [Example 175, 4-{4-[3-(2-methoxy-5-methyl-phenyl)-ureido]-phenyl}-piperazine-1-carboxylic acid (4-methoxy-2-trifluoromethyl-phenyl)-amide]	≥ 50	245 to 247
COc1ccc(C)cc1NC(=O)Nc1ccc(N2CCN(C(=O)Nc3c(C)cccc3C)C(C)C2)cc1 (stereo not drawn) [Example 199, 4-{4-[3-(2-methoxy-5-methyl-phenyl)-ureido]-phenyl}-2-methyl-piperazine-1-carboxylic acid (2,6-dimethyl-phenyl)-amide]	≥ 50	204 to 206
COc1ccccc1NC(=O)Nc1ccc(C2CCN(C(=O)Nc3ccc(OCCO)cc3Cl)CC2)cc1 [Example 261, 4-{4-[3-(2-methoxy-phenyl)-ureido]-phenyl}-piperidine-1-carboxylic acid [2-chloro-4-(2-hydroxy-ethoxy)-phenyl]-amide]	≥ 50	166 to 168
CCOc1ccccc1NC(=O)Nc1ccc(N2CCN(C(=O)Nc3c(F)cccc3C(F)(F)F)CC2)cc1 [Example 117, 4-{4-[3-(2-ethoxy-phenyl)-ureido]-phenyl}-piperazine-1-carboxylic acid (2-fluoro-6-trifluoromethyl-phenyl)-amide]	≥ 50	139 to 141
CCc1csc(NC(=O)Nc2ccc(N3CCN(C(=O)Nc4ccc(OCCO)cc4C(F)(F)F)CC3)cc2)n1 [Example 246, 4-{4-[3-(4-ethyl-thiazol-2-yl)-ureido]-phenyl}-piperazine-1-carboxylic acid [4-(2-hydroxy-ethoxy)-2-trifluoromethyl-phenyl]-amide]	≥ 50	124 to 125
CCOc1ccccc1NC(=O)Nc1ccc(N2CCN(C(=O)Nc3c(C)cccc3OC)CC2)cc1 [Example 183, 4-{4-[3-(2-ethoxy-phenyl)-ureido]-phenyl}-piperazine-1-carboxylic acid (2-methoxy-6-methyl-phenyl)-amide]	≥ 50	169 to 171
COc1cccc(NC(=O)Nc2ccc(N3CCN(C(=O)Nc4ncccc4C)CC3)cc2)c1 [Example 303, 4-{4-[3-(3-methoxy-phenyl)-ureido]-phenyl}-piperazine-1-carboxylic acid (3-methyl-pyridin-2-yl)-amide]	≥ 50	191 to 193
O=C(Nc1ccc(N2CCN(C(=O)Nc3ccc(OCCO)cc3C(F)(F)F)CC2)cc1)Nc1ccccc1OC(F)F [Example 245, 4-{4-[3-(2-difluoromethoxy-phenyl)-ureido]-phenyl}-piperazine-1-carboxylic acid [4-(2-hydroxy-ethoxy)-2-trifluoromethyl-phenyl]-amide]	≥ 50	118 to 120
COc1ccccc1NC(=O)Nc1ccc(N2CCN(C(=O)Nc3cc(OCCO)ccc3Cl)CC2)cc1 [Example 232, 4-{4-[3-(2-methoxy-phenyl)-ureido]-phenyl}-piperazine-1-carboxylic acid [2-chloro-5-(2-hydroxy-ethoxy)-phenyl]-amide]	≥ 50	179 to 180
COc1ccc(Cl)cc1NC(=O)Nc1ccc(N2CCN(C(=O)Nc3ncccc3C)CC2)cc1 [Example 310, 4-{4-[3-(5-chloro-2-methoxy-phenyl)-ureido]-phenyl}-piperazine-1-carboxylic acid (3-methyl-pyridin-2-yl)-amide]	≥ 50	163 to 165
COc1ccc(C)cc1NC(=O)Nc1ccc(N2CCN(C(=O)Nc3c(Cl)cccc3C(F)(F)F)CC2)cc1 [Example 66, 4-{4-[3-(2-methoxy-5-methyl-phenyl)-ureido]-phenyl}-piperazine-1-carboxylic acid (2-chloro-6-trifluoromethyl-phenyl)-amide]	≥ 50	196 to 197
COc1ccc(F)cc1NC(=O)Nc1ccc(N2CCN(C(=O)Nc3ccc(OCC(O)CO)cc3C(F)(F)F)CC2)nc1 (stereo not drawn) [Example 279, 4-{5-[3-(5-fluoro-2-methoxy-phenyl)-ureido]-pyridin-2-yl}-piperazine-1-carboxylic acid [4-(2,3-dihydroxy-propoxy)-2-trifluoromethyl-phenyl]-amide]	≥ 50	195
COc1cc(NC(=O)Nc2ccc(N3CCN(C(=O)Nc4ccc(OCCO)cc4Cl)CC3)cc2)cc(OC)c1 [Example 250, 4-{4-[3-(3,5-dimethoxy-phenyl)-ureido]-phenyl}-piperazine-1-carboxylic acid [2-chloro-4-(2-hydroxy-ethoxy)-phenyl]-amide]	≥ 50	114 to 116
COc1ccccc1NC(=O)Nc1ccc(N2CCN(C(=O)Nc3ccc(OCCO)cc3Cl)CC2)cc1 [Example 251, 4-{4-[3-(2-methoxy-phenyl)-ureido]-phenyl}-piperazine-1-carboxylic acid [2-chloro-4-(2-hydroxy-ethoxy)-phenyl]-amide]	≥ 50	134 to 136
COc1cc(NC(=O)Nc2ccc3c(c2)CCN(C(=O)Nc2ccc(OCCO)cc2Cl)C3)cc(OC)c1 [Example 266, 6-[3-(3,5-dimethoxy-phenyl)-ureido]-3,4-dihydro-1H-isoquinoline-2-carboxylic acid [2-chloro-4-(2-hydroxy-ethoxy)-phenyl]-amide]	≥ 50	105 to 110
COc1cc(NC(=O)Nc2ccc(C3CCN(C(=O)Nc4ccc(OCC(O)CO)cc4Cl)CC3)cc2)cc(OC)c1 (stereo not drawn) [Example 289, 4-{4-[3-(3,5-dimethoxy-phenyl)-ureido]-phenyl}-piperidine-1-carboxylic acid [2-chloro-4-(2,3-dihydroxy-propoxy)-phenyl]-amide]	≥ 50	105 to 108
COc1ccc(C)cc1NC(=O)Nc1ccc2c(c1)CCN(C(=O)Nc1ccc(OCCO)cc1C(F)(F)F)C2 [Example 226, 6-[3-(2-methoxy-5-methyl-phenyl)-ureido]-3,4-dihydro-1H-isoquinoline-2-carboxylic acid [4-(2-hydroxy-ethoxy)-2-trifluoromethyl-phenyl]-amide]	≥ 50	122 to 124

Source: US20070249620A1, “Urea Derivative” (priority 2004, published 2007)
